Experimental data taken from patent US7139665B2, “Computational method for designing enzymes for incorporation of non natural amino acids into proteins” (California Institute of Technology, priority 2002, dated 2006).
Entries after “also recorded” stand apart in the source; their conditions may differ.

Columns and labels:
ePheRS = molecular target: T1, ePheRS (Escherichia coli, UniProt P08312); assay: In vivo translational activity: mDHFR expression in Phe-auxotrophic E. coli AF-IQ[pQE15] (no mutant synthetase); assay type: cell-based; details: phenylalanine-free minimal media supplemented with 2 (250 mg/L), 4 hr post-induction, versus background (-phe)
T1 construct: endogenous in cells; host or cells: E. coli AF-IQ[pQE15]; (Phe-auxotrophic BL21(DE3) derivative)
Method: (§1) AF-IQ, a phenylalanine auxotrophic E. coli strain carrying the repressor plasmid pLysS-IQ,^4 was transformed with pQE15, pQE-FS*, or pQE-FS** to generate expression systems AF-IQ[pQE15], AF-IQ[pQE-FS*], and AF-IQ[pQE-FS**], respectively. The capacity of 2 to support protein synthesis in each expression system was determined by induction of mDHFR expression in phenylalanine-free minimal media supplemented with 2.
(§2) The AF strain was transformed with repressor plasmid pLysS-IQ and with pQE15, pQE-FS* or pQE-FS** to generate expression strains AF-IQ[pQE15], AF-IQ[pQE-FS*] or AF-IQ[pQE-FS**], respectively.
Small scale (10 ml) cultures were used to investigate the in vivo translational activity of 2 (p-AcetylPhe). M9 minimal medium (50 ml) supplemented with 0.2% glucose, 1 mg/L thiamine, 1 mM MgSO4, 1 mM CaCl2, 19 amino acids (at 20 mg/L), antibiotics (ampicillin 200 mg/L, chloramphenicol 35 mg/L) and phenylalanine (at 20 mg/L) was inoculated with 1 ml of an overnight culture of the expression strain. When the optical density at 600 nm reached 0.8–1.0, a medium shift was performed. […] Cells were cultured for 4 hours post-induction and protein expression was monitored by SDS polyacrylamide gel electrophoresis (PAGE, 12%), using a normalized OD600 of 0.2 per sample.

ePheRS* [1] = molecular target: T2, ePheRS* (Escherichia coli, UniProt P08312, A294G); assay: In vivo translational activity: mDHFR expression in E. coli AF-IQ[pQE-FS*] over-expressing ePheRS* (Ala294Gly); assay type: cell-based; details: ePheRS* over-expressed, Phe-depleted media supplemented with 2 (250 mg/L), versus background (-phe)
T2 construct: expressed in transfected cells; host or cells: E. coli AF-IQ[pQE-FS*]
Method: as §1
A phenylalanine auxotrophic derivative of E. coli strain BL21(DE3), designed AF (HsdS gal (χcIts857 ind I Dam5 lacUV5-T7 gene 1) pheA) and constructed in our laboratory, was used as the expression host. The AF strain was transformed with repressor plasmid pLysS-IQ and with pQE15, pQE-FS* or pQE-FS** to generate expression strains AF-IQ[pQE15], AF-IQ[pQE-FS*] or AF-IQ[pQE-FS**], respectively.
Small scale (10 ml) cultures were used to investigate the in vivo translational activity of 2 (p-AcetylPhe). M9 minimal medium (50 ml) supplemented with 0.2% glucose, 1 mg/L thiamine, 1 mM MgSO4, 1 mM CaCl2, 19 amino acids (at 20 mg/L), antibiotics (ampicillin 200 mg/L, chloramphenicol 35 mg/L) and phenylalanine (at 20 mg/L) was inoculated with 1 ml of an overnight culture of the expression strain. […] Cells were cultured for 4 hours post-induction and protein expression was monitored by SDS polyacrylamide gel electrophoresis (PAGE, 12%), using a normalized OD600 of 0.2 per sample.

ePheRS** = molecular target: T3, ePheRS** (Escherichia coli, UniProt P08312, A294G/T251G); assay type: cell-based
T3 construct: expressed in transfected cells; host or cells: E. coli AF-IQ[pQE-FS**]
Method: The capacity of 2 to support protein synthesis in each expression system was determined by induction of mDHFR expression in phenylalanine-free minimal media supplemented with 2.
as §2
Small scale (10 ml) cultures were used to investigate the in vivo translational activity of 2 (p-AcetylPhe). M9 minimal medium (50 ml) supplemented with 0.2% glucose, 1 mg/L thiamine, 1 mM MgSO4, 1 mM CaCl2, 19 amino acids (at 20 mg/L), antibiotics (ampicillin 200 mg/L, chloramphenicol 35 mg/L) and phenylalanine (at 20 mg/L) was inoculated with 1 ml of an overnight culture of the expression strain. When the optical density at 600 nm reached 0.8–1.0, a medium shift was performed. Cells were sedimented by centrifugation for 15 min at 3,100 g at 4° C., the supernatant was removed and the cell pellets were washed twice with 0.9% NaCl. Cells were resuspended in supplemented M9 medium containing either: (a) 250 mg/L of p-AcetylPhe 2, (b) 20 mg/L phe (1) (positive control), or (c) no phe or analog (negative control). Protein expression was induced 10 min after the medium shift by addition of isopropyl-β-D-thiogalactoside (IPTG) to a final concentration of 1 mM. Cells were cultured for 4 hours post-induction and protein expression was monitored by SDS polyacrylamide gel electrophoresis (PAGE, 12%), using a normalized OD600 of 0.2 per sample.

ePheRS* [2] = molecular target: T2, ePheRS*; details: over-expression of ePheRS*; earlier work; cited from earlier work

T2 sequence (P08312 whole entry A294G): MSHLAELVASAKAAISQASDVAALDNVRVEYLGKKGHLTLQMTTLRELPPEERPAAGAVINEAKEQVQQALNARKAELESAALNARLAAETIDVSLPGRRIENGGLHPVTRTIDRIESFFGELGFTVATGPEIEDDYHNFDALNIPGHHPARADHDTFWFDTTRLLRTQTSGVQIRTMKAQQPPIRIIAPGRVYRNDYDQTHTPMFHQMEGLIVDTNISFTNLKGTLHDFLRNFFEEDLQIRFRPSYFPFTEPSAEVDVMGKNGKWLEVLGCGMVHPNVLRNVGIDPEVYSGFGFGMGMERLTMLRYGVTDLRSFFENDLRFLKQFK
T2 sequence (P07395 whole entry, further chain): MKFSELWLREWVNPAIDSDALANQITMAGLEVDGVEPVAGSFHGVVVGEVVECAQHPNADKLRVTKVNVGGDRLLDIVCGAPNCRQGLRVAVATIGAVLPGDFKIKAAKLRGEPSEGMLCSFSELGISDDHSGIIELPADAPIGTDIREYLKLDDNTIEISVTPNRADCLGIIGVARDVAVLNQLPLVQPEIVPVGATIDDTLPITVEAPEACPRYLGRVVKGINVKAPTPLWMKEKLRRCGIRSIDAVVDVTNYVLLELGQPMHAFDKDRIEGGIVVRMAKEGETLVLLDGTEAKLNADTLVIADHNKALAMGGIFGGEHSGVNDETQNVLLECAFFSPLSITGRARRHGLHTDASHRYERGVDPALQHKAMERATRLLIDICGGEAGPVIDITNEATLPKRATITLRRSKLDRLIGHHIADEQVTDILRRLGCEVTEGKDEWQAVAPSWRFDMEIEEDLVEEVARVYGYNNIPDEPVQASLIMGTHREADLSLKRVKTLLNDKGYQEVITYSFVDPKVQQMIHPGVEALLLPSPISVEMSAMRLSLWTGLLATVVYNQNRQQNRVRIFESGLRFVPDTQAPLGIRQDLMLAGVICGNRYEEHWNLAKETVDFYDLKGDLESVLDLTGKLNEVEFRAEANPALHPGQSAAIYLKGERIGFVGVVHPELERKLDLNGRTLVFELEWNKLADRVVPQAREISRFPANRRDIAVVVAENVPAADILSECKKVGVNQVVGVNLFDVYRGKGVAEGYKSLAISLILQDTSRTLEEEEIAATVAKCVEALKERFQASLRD
T3 sequence (P08312 whole entry T251G/A294G): as the sequence (P08312 whole entry A294G) above, with T251G counted along it
T3 sequence (P07395 whole entry, further chain): as the sequence (P07395 whole entry, further chain) above
T1 sequence (P07395 whole entry): as the sequence (P07395 whole entry, further chain) above
T1 sequence (P08312 whole entry): as the sequence (P08312 whole entry A294G) above, with G294A counted along it

Structure (SMILES): CC(=O)c1ccc(C[C@H](N)C(=O)O)cc1 [compound 2, p-acetylphenylalanine]
- protein (mDHFR) expression, SDS-PAGE of whole cell lysates (ePheRS): neither AF-IQ[pQE15] nor AF-IQ[pQE-FS*] exhibits protein expression above background
- protein (mDHFR) expression, SDS-PAGE of whole cell lysates (ePheRS* [1]): did not produce substantial yields of protein; also recorded: neither AF-IQ[pQE15] nor AF-IQ[pQE-FS*] exhibits protein expression above background
- protein (mDHFR) expression, SDS-PAGE of whole cell lysates (ePheRS**; AF-IQ[pQE-FS**], phenylalanine-free minimal media supplemented with 2 (250 mg/L)): high levels of mDHFR expression
- replacement of 1 by 2 in mDHFR (ePheRS**; from MALDI-TOF mass increase of mDHFR-2, mDHFR contains 9 Phe residues): approximately 80%
- misincorporation of canonical amino acids (ePheRS**; media supplemented with 2): no detectable misincorporation

Structure (SMILES): [N-]=[N+]=Nc1ccc(C[C@H](N)C(=O)O)cc1 [p-azidophenylalanine]
- incorporation into recombinant proteins in E. coli hosts (ePheRS* [2]): efficient incorporation

Structure (SMILES): N[C@@H](Cc1ccc(Br)cc1)C(=O)O [p-bromophenylalanine]
- incorporation into recombinant proteins in E. coli hosts (ePheRS* [2]): efficient incorporation

Structure (SMILES): N#Cc1ccc(C[C@H](N)C(=O)O)cc1 [p-cyanophenylalanine]
- incorporation into recombinant proteins in E. coli hosts (ePheRS* [2]): efficient incorporation

Structure (SMILES): C#Cc1ccc(C[C@H](N)C(=O)O)cc1 [p-ethynylphenylalanine]
- incorporation into recombinant proteins in E. coli hosts (ePheRS* [2]): efficient incorporation

Structure (SMILES): N[C@@H](Cc1ccc(I)cc1)C(=O)O [p-iodophenylalanine]
- incorporation into recombinant proteins in E. coli hosts (ePheRS* [2]): efficient incorporation

Structure (SMILES): N[C@@H](Cc1c[nH]c2ccccc12)C(=O)O [tryptophan]
- misincorporation into protein by ePheRS** (ePheRS**; phe starvation conditions in the absence of 2): misincorporation

Structure (SMILES): N[C@@H](Cc1ccc(O)cc1)C(=O)O [tyrosine]
- misincorporation into protein (ePheRS**; under any conditions): not observed misincorporation
